Columns and labels:
[1] = system: HT29; experiment: NCI one-dose screening, colon cancer HT29; assay type: cell-based, human; conditions: 10 μM
[2] = system: DU145; experiment: NCI one-dose screening, prostate cancer DU145; assay type: cell-based, human; conditions: 10 μM
[3] = system: SNB-75; experiment: NCI one-dose screening, CNS cancer SNB-75; assay type: cell-based, human; conditions: 10 μM
[4] = system: TK-10; experiment: NCI one-dose screening, renal cancer TK-10; assay type: cell-based, human; conditions: 10 μM
[5] = system: MDA-MB-231/ATCC; experiment: NCI one-dose screening, breast cancer MDA-MB-231/ATCC; assay type: cell-based, human; conditions: 10 μM
[6] = system: NCI-H226; experiment: NCI one-dose screening, non-small cell lung cancer NCI-H226; assay type: cell-based, human; conditions: 10 μM
[7] = system: EKVX; experiment: NCI one-dose screening, non-small cell lung cancer EKVX; assay type: cell-based, human; conditions: 10 μM
[8] = system: SR; experiment: NCI one-dose screening, leukemia SR; assay type: cell-based, human; conditions: 10 μM
[9] = system: HS 578-T; experiment: NCI one-dose screening, breast cancer HS 578-T; assay type: cell-based, human; conditions: 10 μM; Breast cancer
[10] = system: HOP-62; experiment: NCI one-dose screening, non-small cell lung cancer HOP-62; assay type: cell-based, human; conditions: 10 μM
[11] = system: NCI-H460; experiment: NCI one-dose screening, non-small cell lung cancer NCI-H460; assay type: cell-based, human; conditions: 10 μM
[12] = NCI one-dose screening, renal cancer A489; assay type: cell-based, human; conditions: 10 μM
[13] = system: MDA-MB-468; experiment: NCI one-dose screening, breast cancer MDA-MB-468; assay type: cell-based, human; conditions: 10 μM
[14] = system: SK-MEL-28; experiment: NCI one-dose screening, melanoma SK-MEL-28; assay type: cell-based, human; conditions: 10 μM
[15] = system: human tumor cell lines; experiment: NCI one-dose screening, Mean / Delta / Range of growth percent over all tested cell lines; assay type: cell-based; conditions: 10 μM
[16] = system: U251; experiment: NCI one-dose screening, CNS cancer U251; assay type: cell-based, human; conditions: 10 μM
[17] = system: M14; experiment: NCI one-dose screening, melanoma M14; assay type: cell-based, human; conditions: 10 μM
[18] = system: NCI-H23; experiment: NCI one-dose screening, non-small cell lung cancer NCI-H23; assay type: cell-based, human; conditions: 10 μM
[19] = system: OVCAR-3; experiment: NCI one-dose screening, ovarian cancer OVCAR-3; assay type: cell-based, human; conditions: 10 μM
[20] = system: NCl/ADR-RES; experiment: NCI one-dose screening, breast cancer NCl/ADR-RES; assay type: cell-based, human; conditions: 10 μM; listed under Ovarian cancer
[21] = system: MOLT-4; experiment: NCI one-dose screening, leukemia MOLT-4; assay type: cell-based, human; conditions: 10 μM
[22] = system: BT-549; experiment: NCI one-dose screening, breast cancer BT-549; assay type: cell-based, human; conditions: 10 μM
[23] = system: IGROV1; experiment: NCI one-dose screening, ovarian cancer IGROV1; assay type: cell-based, human; conditions: 10 μM
[24] = system: PC-3; experiment: NCI one-dose screening, prostate cancer PC-3; assay type: cell-based, human; conditions: 10 μM
[25] = system: MALME-3M; experiment: NCI one-dose screening, melanoma MALME-3M; assay type: cell-based, human; conditions: 10 μM
[26] = system: UACC-62; experiment: NCI one-dose screening, melanoma UACC-62; assay type: cell-based, human; conditions: 10 μM
[27] = system: KM12; experiment: NCI one-dose screening, colon cancer KM12; assay type: cell-based, human; conditions: 10 μM
[28] = system: SN12C; experiment: NCI one-dose screening, renal cancer SN12C; assay type: cell-based, human; conditions: 10 μM
[29] = system: K562cell line; experiment: NCI one-dose screening, leukemia K562; assay type: cell-based, human; conditions: 10 μM
[30] = system: COLO 205; experiment: NCI one-dose screening, colon cancer COLO 205; assay type: cell-based, human; conditions: 10 μM
[31] = system: UO-31; experiment: NCI one-dose screening, renal cancer UO-31; assay type: cell-based, human; conditions: 10 μM
[32] = system: SK-OV-3; experiment: NCI one-dose screening, ovarian cancer SK-OV-3; assay type: cell-based, human; conditions: 10 μM
[33] = system: MDA, -MB-435; experiment: NCI one-dose screening, breast cancer MDA, -MB-435; assay type: cell-based, human; conditions: 10 μM; listed under Melanoma
[34] = system: HCT-116; experiment: NCI one-dose screening, colon cancer HCT-116; assay type: cell-based, human; conditions: 10 μM
[35] = system: PC-3 prostate cancer cell line; experiment: SRB assay cell viability, PC-3 prostate cancer cell line; assay type: cell-based, human; conditions: PC-3 prostate cancer cell line, Table II prints no unit, μM printed, read-out: SRB assay: 50% inhibition of cancer cell proliferation of sample concentration (IC50) of PC-3 prostate cancer cell line
[36] = system: MCF7; experiment: NCI one-dose screening, breast cancer MCF7; assay type: cell-based, human; conditions: 10 μM
[37] = system: SF-539; experiment: NCI one-dose screening, CNS cancer SF-539; assay type: cell-based, human; conditions: 10 μM
[38] = system: HOP-92; experiment: NCI one-dose screening, non-small cell lung cancer HOP-92; assay type: cell-based, human; conditions: 10 μM
[39] = system: CAKI-1; experiment: NCI one-dose screening, renal cancer CAKI-1; assay type: cell-based, human; conditions: 10 μM
[40] = system: NCI-H522; experiment: NCI one-dose screening, non-small cell lung cancer NCI-H522; assay type: cell-based, human; conditions: 10 μM
[41] = system: SF-295; experiment: NCI one-dose screening, CNS cancer SF-295; assay type: cell-based, human; conditions: 10 μM
[42] = system: 786-O; experiment: NCI one-dose screening, renal cancer 786-O; assay type: cell-based, human; conditions: 10 μM
[43] = system: HL-60, TB; experiment: NCI one-dose screening, leukemia HL-60, TB; assay type: cell-based, human; conditions: 10 μM
[44] = system: T-47D; experiment: NCI one-dose screening, breast cancer T-47D; assay type: cell-based, human; conditions: 10 μM
[45] = system: SNB-19; experiment: NCI one-dose screening, CNS cancer SNB-19; assay type: cell-based, human; conditions: 10 μM
[46] = system: OVCAR-8; experiment: NCI one-dose screening, ovarian cancer OVCAR-8; assay type: cell-based, human; conditions: 10 μM
[47] = system: RXF, 393; experiment: NCI one-dose screening, renal cancer RXF, 393; assay type: cell-based, human; conditions: 10 μM
[48] = system: PRMI-8226 cell line; experiment: NCI one-dose screening, leukemia PRMI-8226; assay type: cell-based, human; conditions: 10 μM
[49] = system: HCC-2998; experiment: NCI one-dose screening, colon cancer HCC-2998; assay type: cell-based, human; conditions: 10 μM
[50] = system: OVCAR-5; experiment: NCI one-dose screening, ovarian cancer OVCAR-5; assay type: cell-based, human; conditions: 10 μM
[51] = system: SK-MEL-2; experiment: NCI one-dose screening, melanoma SK-MEL-2; assay type: cell-based, human; conditions: 10 μM
[52] = system: ACHN; experiment: NCI one-dose screening, renal cancer ACHN; assay type: cell-based, human; conditions: 10 μM
[53] = system: SF-268; experiment: NCI one-dose screening, CNS cancer SF-268; assay type: cell-based, human; conditions: 10 μM
[54] = system: SK-MEL-5; experiment: NCI one-dose screening, melanoma SK-MEL-5; assay type: cell-based, human; conditions: 10 μM
[55] = system: HCT-15; experiment: NCI one-dose screening, colon cancer HCT-15; assay type: cell-based, human; conditions: 10 μM
[56] = system: UACC-257; experiment: NCI one-dose screening, melanoma UACC-257; assay type: cell-based, human; conditions: 10 μM
[57] = system: A549/ATCC; experiment: NCI one-dose screening, non-small cell lung cancer A549/ATCC; assay type: cell-based, human; conditions: 10 μM
[58] = system: LOX IMVI; experiment: NCI one-dose screening, melanoma LOX IMVI; assay type: cell-based, human; conditions: 10 μM

## 4-(o-phenylmethyl thio)anthra[2,1-c] [1,2,5]thiadiazol-6,11-dione [C48]
[1]
  Growth Percent HT29: 104.31%
[2]
  Growth Percent DU145: 101.53%
[3]
  Growth Percent SNB-75: 76.30%
[4]
  Growth Percent TK-10: 122.97%
[5]
  Growth Percent MDA-MB-231/ATCC: 60.72%
[6]
  Growth Percent NCI-H226: 95.71%
[7]
  Growth Percent EKVX: 104.56%
[8]
  Growth Percent SR: 23.00%
[9]
  Growth Percent HS 578T: 83.69%
[10]
  Growth Percent HOP-62: 59.51%
[11]
  Growth Percent NCI-H460: 88.86%
[12]
  Growth Percent A498: 85.54%
[13]
  Growth Percent MDA-MB-468: 53.68%
[14]
  Growth Percent SK-MEL-28: 105.73%
[15]; delta over all cell lines
  Growth Percent Delta: 75.31%
[15]; mean over all cell lines
  Growth Percent Mean: 80.61%
[15]; range over all cell lines
  Growth Percent Range: 120.98%
[16]
  Growth Percent U251: 62.36%
[17]
  Growth Percent M14: 94.25%
[18]
  Growth Percent NCI-H23: 53.21%
[19]
  Growth Percent OVCAR-3: 5.30%
[20]
  Growth Percent NCI/ADR-RES: 59.53%
[21]
  Growth Percent MOLT-4: 67.31%
[22]
  Growth Percent BT-549: 95.35%
[23]
  Growth Percent IGROV1: 80.06%
[24]
  Growth Percent PC-3: 73.26%
[25]
  Growth Percent MALME-3M: 96.77%
[26]
  Growth Percent UACC-62: 90.69%
[27]
  Growth Percent KM12: 103.11%
[28]
  Growth Percent SN12C: 85.97%
[29]
  Growth Percent K562: 32.30%
[30]
  Growth Percent COLO 205: 99.23%
[31]
  Growth Percent UO-31: 62.14%
[32]
  Growth Percent SK-OV-3: 93.79%
[33]
  Growth Percent MDA-MB-435: 80.61%
[34]
  Growth Percent HCT-116: 92.15%
[35]
  IC50: > 15 µM
[36]
  Growth Percent MCF7: 66.12%
[37]
  Growth Percent SF-539: 78.04%
[38]
  Growth Percent HOP-92: 89.91%
[39]
  Growth Percent CAKI-1: 81.47%
[40]
  Growth Percent NCI-H522: 74.81%
[41]
  Growth Percent SF-295: 104.92%
[42]
  Growth Percent 786-0: 100.36%
[43]
  Growth Percent HL-60(TB): −79.53%
[44]
  Growth Percent T-47D: 51.89%
[45]
  Growth Percent SNB-19: 103.54%
[46]
  Growth Percent OVCAR-8: 76.29%
[47]
  Growth Percent RXF 393: 95.88%
[48]
  Growth Percent RPMI-8226: 48.56%
[49]
  Growth Percent HCC-2998: 124.00%
[50]
  Growth Percent OVCAR-5: 126.28%
[51]
  Growth Percent SK-MEL-2: 73.29%
[52]
  Growth Percent ACHN: 89.76%
[53]
  Growth Percent SF-268: 74.73%
[54]
  Growth Percent SK-MEL-5: 87.54%
[55]
  Growth Percent HCT-15: 38.57%
[56]
  Growth Percent UACC-257: 87.32%
[57]
  Growth Percent A549/ATCC: 104.68%
[58]
  Growth Percent LOX IMVI: 30.01%

Reference: patent publication US8877748B2, “Heterocyclic fused anthraquinone derivatives, manufacturing method and pharmaceutical composition using thereof” (National Defense Medical Center, priority 2012, dated 2014)
